Among the data in publication PMC10889769, “The Molecular and Functional Characterization of Sensory Neuron Membrane Protein 1b (SNMP1b) from Cyrtotrachelus buqueti (Coleoptera: Curculionidae)” (Insects, 2024) are Kd and IC50 values, retold here.

T1 sequence (A0A9E9JN76 entry or part of it): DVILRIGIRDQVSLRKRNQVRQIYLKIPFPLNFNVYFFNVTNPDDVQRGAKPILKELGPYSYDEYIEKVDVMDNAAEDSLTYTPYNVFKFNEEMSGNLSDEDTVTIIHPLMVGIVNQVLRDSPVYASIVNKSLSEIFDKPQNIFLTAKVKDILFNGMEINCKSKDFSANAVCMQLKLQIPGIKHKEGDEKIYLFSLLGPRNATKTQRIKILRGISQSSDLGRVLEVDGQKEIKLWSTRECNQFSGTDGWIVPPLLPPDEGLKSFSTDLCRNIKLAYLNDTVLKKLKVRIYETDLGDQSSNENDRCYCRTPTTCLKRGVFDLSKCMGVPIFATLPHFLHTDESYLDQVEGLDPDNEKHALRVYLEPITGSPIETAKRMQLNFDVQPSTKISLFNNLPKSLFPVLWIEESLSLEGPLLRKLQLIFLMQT

One test addresses T1, CbuqSNMP1b (Cyrtotrachelus buqueti, UniProt A0A9E9JN76). The experiment in a line: Binding of 1-NPN to CbuqSNMP1b (fluorescence titration, Scatchard analysis). The settings on record: 2 μM CbuqSNMP1b titrated with 2–40 μM 1-NPN; Scatchard plot; read-out: dissociation constant (Kd) of the CbuqSNMP1b/1-NPN complex. How it is done: Binding affinities of CbuqSNMP1b to 14 volatiles (Table 1) emitted by female adults of C. buqueti were measured with the fluorescence competition binding assays using N-phenyl-1-naphthylamine (1-NPN) as the fluorescent probe. 1-NPN and all of the other chemicals (the purity being at least more than 96%) used in the binding assays were purchased from Aladdin Biochemical Technology Co., Ltd. (Shanghai, China). The Lumina fluorescence spectrophotometer (Thermo Fisher Scientific, Waltham, MA, USA) was used to perform fluorescence binding assays with a 1 cm light path quartz cuvette at room temperature. All the slit widths for both excitation and emission were 10 nm. The 1-NPN and all the other chemicals were dissolved in methanol (HPLC-grade) to a final concentration of 1 mM. The binding constant of 1-NPN was determined by titrating a 2 μM solution of the CbuqSNMP1b protein with aliquots of 2–40 μM 1-NPN concentrations. The binding of 1-NPN was measured at an excitation wavelength of 337 nm. The scanning range was 360–560 nm at each concentration and the maximum fluorescence intensities were plotted against the free ligand concentration. […]
Regarding `c1ccc(Nc2cccc3ccccc23)cc1` [1-NPN, N-phenyl-1-naphthylamine], the Kd was 13.3 µM.

A further test has as its target T1, CbuqSNMP1b. The experiment in a line: Fluorescence competition binding assay with 1-NPN as fluorescent probe.
Conditions: not given
As to the method:
1-NPN and all of the other chemicals (the purity being at least more than 96%) used in the binding assays were purchased from Aladdin Biochemical Technology Co., Ltd. (Shanghai, China). The Lumina fluorescence spectrophotometer (Thermo Fisher Scientific, Waltham, MA, USA) was used to perform fluorescence binding assays with a 1 cm light path quartz cuvette at room temperature. All the slit widths for both excitation and emission were 10 nm. The 1-NPN and all the other chemicals were dissolved in methanol (HPLC-grade) to a final concentration of 1 mM. The binding constant of 1-NPN was determined by titrating a 2 μM solution of the CbuqSNMP1b protein with aliquots of 2–40 μM 1-NPN concentrations. The binding of 1-NPN was measured at an excitation wavelength of 337 nm. The scanning range was 360–560 nm at each concentration and the maximum fluorescence intensities were plotted against the free ligand concentration.
In turn, `C=C(C)[C@H]1CC=C(C)CC1` [(+)-Limonene] returned an IC50 of over 50 µM. `c1ccc2scnc2c1` [Benzothiazole] registered an IC50 of 13.3 µM.

`C[C@@H]1CC[C@H]2C(C)(C)[C@H]3C[C@@]12CC[C@@]3(C)O` [Cedrol] displayed an IC50 of over 50 µM.

With `CCCCOC(=O)c1ccccc1C(=O)OCCCC` [Dibutyl phthalate], the IC50 was 10.4 µM. `Cc1cccc(C)c1` [M-xylene] gave an IC50 of over 50 µM. For `Oc1ccccc1` [Phenol], the IC50 came out at 24.1 µM. Still for that read-out and setting: as for `CC(C)=CCC/C(C)=C/CC/C(C)=C/CC/C=C(\C)CC/C=C(\C)CCC=C(C)C` [Squalene], the figure is over 50 µM; as for `C=Cc1ccccc1` [Styrene], over 50 µM.

Still in this test, the particulars now being: recombinant CbuqSNMP1b and 1-NPN both at 2 μM; displacement of 1-NPN; room temperature; read-out: IC50.
`CCCCCCCCC=O` [1-Nonanal]: the IC50 is over 50 µM. Consider `CCCCCCCC(C)=O` [2-Nonanone], for which the IC50 was over 50 µM. As for `CCCCCCCCCC=O` [Decyl aldehyde], the IC50 is over 50 µM. `CCCCCC(=O)OCC` [Ethyl hexanoate]: the IC50 was over 50 µM. Turning to `CCCCCCCCCCCCCCCC(=O)OC` [Methyl hexadecanoate], the IC50 was over 50 µM. Take `CCCC/C=C/C=C/C=O` [trans,trans-2,4-Nonadienal]: the 50% inhibitory concentration (IC50) was over 50 µM.
